{"source": "patent US20030211995A1", "about": "“Methods and formulations for eradicating or alleviating staphylococcal nasal colonization using lysostaphin” (priority 2001, published 2003)", "key": {"S. aureus (ATCC 49521)": {"system": "S. aureus (ATCC 49521)", "test": "Lysostaphin MIC assay, outgrowth of lysostaphin resistance with or without sub-MIC bacitracin or nisin", "type": "cell-based", "parameters": "key to growth in lysostaphin MIC assay: G = Normal growth; Blank = no growth; R = resistance outgrowth as determined by addition of 20 μg/ml lysostaphin for 4 hrs following initial overnight incubation", "settings": "for growth in lysostaphin MIC assay: replicate rows", "description": "When lysostaphin is tested in a standard “Minimum Inhibitory Concentration” (MIC) assay, outgrowth of S. aureus is sometime observed above the MIC for almost all strains of S. aureus examined. On further testing, these outgrowth wells are found to contain lysostaphin-resistant S. aureus with MICs many dilutions above the MIC of the parental strain. […] This Example illustrates that the addition of the antibacterial agent bacitracin, eliminates lysostaphin-resistant outgrowths in vitro, and may likewise reduce or eliminate resistant outgrowths in vivo. […] Of course, nasal formulations comprising antibacterial agents above the MIC for that particular agent are also within the scope of this invention.\nIn this experiment a NCCLS standard MIC is conducted with the modification of adding 0.1% BSA to the assay. Rows 1-4 are lysostaphin MICs conducted in the absence of bacitracin while rows 5-8 are lysostaphin MICs conducted in the presence of bacitracin (5 μg/ml).\n(§1) Lysostaphin MIC assays were conducted in the presence or absence of subinhibitory concentrations (four-fold dilution below MIC) of either bacitracin or nisin to determine if either substance prevented the outgrowth of lysostaphin resistance in these assays. This is as previously described in Example 14, above."}, "[1]": {"system": "S. aureus strain MBT 5040", "test": "MIC by microtiter dilution assay", "type": "cell-based", "experimental": "At the same time, a Columbia agar plate containing 2% NaCl (CSA) was inoculated with S. aureus strain MBT 5040 from a frozen stock. […] The MIC of a drug for a particular bacterial strain is the minimum concentration of the drug that inhibits normal growth of that particular bacterial strain.\nAny detected S. aureus after lysostaphin treatment were tested for lysostaphin resistance by microtiter dilution assay. […] Plates were prepared by making lysostaphin dilutions in cation-adjusted Mueller Hinton broth+2%NaCl and 0.1%BSA (CAMHB+). The CAMHB+2% NaCl was made first, autoclaved, and then sterile 30% BSA was added to equal 0.1% BSA concentration. BSA prevents nonspecific lysostaphin interaction with plastic. The final volume of CAMHB+ in each well was 50 μl. Dilutions were 1:2, prepared by mixing 50 μl of the previous dilution into 50 μl of fresh media. The final row on the plate was left with no lysostaphin added as a control for growth. […] Overnight cultures were diluted ˜1:1000, as determined empirically, to yield a final concentration of 5×10^5/ml by measuring the optical density at 650 nm (OD650). […] The minimal inhibitory concentration (MIC) of lysostaphin, the lowest concentration of lysostaphin that prevents normal growth, was determined by reading the OD650 on a microplate reader.\nPlates were incubated at room temperature for 6 to 18 hours. The OD650 was determined."}, "Type 5 S. aureus (MSSA)": {"system": "Type 5 S. aureus (MSSA)", "test": "Cotton rat nasal colonization model, single dose of cream", "type": "in vivo", "settings": "Table 6d; single dose of 0.5% lysostaphin cream", "description": "(§2) On the day of instillation, S. aureus MBT 5040 was harvested from the CSA plate by scraping colonies into sterile. PBS (1 ml/animal to be instilled) until the percent transmittance of the sample was approximately 10% at […] in a 10 mm path length. The bacteria were pelleted by centrifugation and then resuspended in 10 μl/animal of sterile PBS. Cotton rats were sedated with 200 μl of Ketamine (25 mg/kg), Rompun (2.5 mg/kg), and Acepromazine (2.5 mg/kg) delivered intramuscularly. Ten microliters, approximately 10^9 S. aureus CFUs per animal, of MBT 5040 in PBS was instilled in the nares using a micropipette without touching the nares. Specifically, a drop of bacterial inoculum was placed on the nostril with a micropipettor, without touching the nose. The animal's regular process of respiration then inhaled the drop into the nares. After introduction of the MBT 5040 bacteria, the cotton rats were returned to normal water, without nafcillin. Unless otherwise indicated, this method was consistently used to instill S. aureus in the nares for all examples discussed below.\n(§3) Ten cotton rats were nasally instilled with MBT 5040 S. aureus. On day 4 and day 5 post-instillation, the 5 animals were treated with a 0.5% lysostaphin cream and 5 animals were treated with a cream without lysostaphin added. Cream formulations were delivered into the nares of anaesthetized cotton rats by syringe through an Angiocath™ 22 GA flexible catheter (Becton Dickinson). The catheter was inserted approximately 3 mm into each of the nares and then drawn back as the cream was delivered. The noses of the cotton rats were massaged well following cream delivery to ensure good dispersal of cream. The dose of cream delivered to the nares was approximately 30-50 μl. Due to the cream's highly viscous nature, it was difficult to precisely gauge to volume of creams delivered to the nares. Unless otherwise indicated, this method of cream delivery into the nares was used throughout the examples below.\n(§4) To determine the efficacy of a single dose of 0.5% lysostaphin cream in eradicating S. aureus nasal colonization, cotton rats were instilled with either MBT 5040 (MRSA), Type 5 S. aureus (sensitive to methicillin; MSSA), or Type 8 S. aureus (MSSA). Half of the animals in each group were treated once on day 5 post-instillation with negative control cream and other half of the animals were treated on the same day with 0.5% lysostaphin cream."}, "Type 8 S. aureus (MSSA)": {"system": "Type 8 S. aureus (MSSA)", "test": "Cotton rat nasal colonization model, single dose of cream", "type": "in vivo", "settings": "Table 6d; single dose of 0.5% lysostaphin cream", "description": "as §2, §3, §4"}, "[2]": {"system": "S. aureus strain SA 3865 (mupirocin resistant)", "test": "Cotton rat nasal colonization model, single dose of cream", "type": "in vivo", "settings": "Table 6d; single dose of 0.5% lysostaphin cream"}, "[3]": {"system": "S. aureus strain MRSA 12/12", "test": "Cotton rat nasal colonization model, single dose of cream", "type": "in vivo", "settings": "Table 6d; single dose of 0.5% lysostaphin cream", "description": "To further explore the relationship between lysostaphin-resistance and nasal colonization, treatment of S. aureus strain MRSA 12/12 nasal colonization with a single dose of 0.5% lysostaphin cream was also examined. MRSA 12/12 colonized the cotton rat nares (Table 6d), and a single treatment of 0.5% lysostaphin cream also eradicated nasal colonization by this strain. Nasal supernatant from treated animals was plated on both TSA/NaCl+nafcillin and TSA/NaCl alone since when MRSA become lysostaphin-resistant they revert to MSSA (17)."}, "S. aureus MBT 5040": {"system": "S. aureus MBT 5040", "test": "Cotton rat model, cream instilled before instillation of bacteria (blocking of colonization)", "type": "in vivo", "settings": "administered in a viscous formulation such as a cream", "description": "To determine how long lysostaphin, when administered in a cream formulation, remains active in the nares, a single dose of 2% lysostaphin cream was instilled in cotton rat noses 48 hours, 24 hours, and 8 hours prior to instillation of 10^9 CFU of S. aureus MBT 5040. Control animals received control cream, without lysostaphin, 8 hours prior to receiving bacteria. Six days after introduction of the bacteria, each of the 5 animals per experimental group were sacrificed and the noses checked for S. aureus colonization."}, "MBT 5040 LysoR": {"system": "MBT 5040 LysoR", "test": "MIC of lysostaphin for lysostaphin-resistant variant", "type": "cell-based, S. aureus", "settings": "variant isolated in vitro", "experimental": "Any detected S. aureus after lysostaphin treatment were tested for lysostaphin resistance by microtiter dilution assay. Lysostaphin was resuspended in sterile PBS, aliquotted and stored at −80° C. […] Once thawed, an aliquot of lysostaphin was stored at 4° C. and used for no more than two weeks. Plates were prepared by making lysostaphin dilutions in cation-adjusted Mueller Hinton broth+2%NaCl and 0.1%BSA (CAMHB+). The CAMHB+2% NaCl was made first, autoclaved, and then sterile 30% BSA was added to equal 0.1% BSA concentration. […] The final volume of CAMHB+ in each well was 50 μl. Dilutions were 1:2, prepared by mixing 50 μl of the previous dilution into 50 μl of fresh media. The final row on the plate was left with no lysostaphin added as a control for growth. A starting concentration of 1 μg/ml lysostaphin was used as the stock concentration. […] Overnight cultures were diluted ˜1:1000, as determined empirically, to yield a final concentration of 5×10^5/ml by measuring the optical density at 650 nm (OD650). […] The minimal inhibitory concentration (MIC) of lysostaphin, the lowest concentration of lysostaphin that prevents normal growth, was determined by reading the OD650 on a microplate reader.\nPlates were incubated at room temperature for 6 to 18 hours. The OD650 was determined. […]"}, "S. aureus": {"system": "S. aureus", "test": "Proteinase K neutralization of lysostaphin activity in vitro", "type": "cell-based", "settings": "10^5 S. aureus in PBS; lysostaphin 10 mcg and/or 10 mg/ml Proteinase K; 20 minutes at room temperature", "description": "Lysostaphin (10 mcg) was added to some samples of 10^5 S. aureus in PBS in the presence or absence of 10 mg/ml Proteinase K. The samples were incubated for 20 minutes at room temperatures and then 100 microliter aliquots were plated on blood agar."}, "SA5 Sam": {"system": "SA5 Sam", "test": "Lysostaphin MIC assay, outgrowth of lysostaphin resistance with or without sub-MIC bacitracin or nisin", "type": "cell-based, S. aureus", "settings": "nisin or bacitracin at four-fold dilution below MIC", "description": "as §1"}, "SA5 USU": {"system": "SA5 USU", "test": "Lysostaphin MIC assay, outgrowth of lysostaphin resistance with or without sub-MIC bacitracin or nisin", "type": "cell-based, S. aureus", "settings": "nisin or bacitracin at four-fold dilution below MIC", "description": "as §1"}, "SA8 Sam": {"system": "SA8 Sam", "test": "Lysostaphin MIC assay, outgrowth of lysostaphin resistance with or without sub-MIC bacitracin or nisin", "type": "cell-based, S. aureus", "settings": "nisin or bacitracin at four-fold dilution below MIC", "description": "as §1"}}, "note": "Read-outs that look alike come from different tables or passages of the source. Marks after values point to notes of the source that are not given here. Where a SMILES comes first, the peptide text is derived from it."}
{"compound": "CC[C@H](C)[C@H](N)C1=N[C@H](C(=O)N[C@@H](CC(C)C)C(=O)N[C@H](CCC(=O)O)C(=O)N[C@H](C(=O)N[C@H]2CCCCNC(=O)[C@H](CC(N)=O)NC(=O)[C@@H](CC(=O)O)NC(=O)[C@H](Cc3cnc[nH]3)NC(=O)[C@@H](Cc3ccccc3)NC(=O)[C@H]([C@@H](C)CC)NC(=O)[C@@H](CCCN)NC2=O)[C@@H](C)CC)CS1", "note": "[Bacitracin, bacitracin, reference compound] (HELM PEPTIDE1{[CC[C@H](C)[C@H](N)C1=N[C@H](C(=O)[*:2])CS1].L.[dE].I.K.[NCCC[C@@H](N[*:1])C(=O)[*:2]].I.[dF].H.[dD].N}$PEPTIDE1,PEPTIDE1,5:R3-11:R2$$$V2.0)", "values": [{"measurement": "growth in lysostaphin MIC assay", "setting": "S. aureus (ATCC 49521); lysostaphin 0 ng/ml, bacitracin 5 μg/ml", "result": "G^"}]}
{"compound": "COc1cccc(OC)c1C(=O)N[C@@H]1C(=O)N2[C@@H]1SC(C)(C)[C@@H]2C(=O)O", "note": "[methicillin, reference compound]", "values": [{"measurement": "MIC", "setting": "[1]; Staphylococcus aureus, MBT5040, read-out: MIC", "result": "> 36", "unit": "µg/mL"}]}
{"compound": "Lysostaphin: antibacterial endopeptidase cleaving pentaglycine bridges of staphylococcal cell walls; Ambicin L (recombinant lysostaphin) used in Examples 1-10", "values": [{"measurement": "Animals Colonized/Animals Tested", "setting": "Type 5 S. aureus (MSSA)", "result": "0/5"}, {"measurement": "Mean Colonization", "setting": "Type 5 S. aureus (MSSA)", "result": 0}, {"measurement": "Animals Colonized/Animals Tested", "setting": "Type 8 S. aureus (MSSA)", "result": "0/5"}, {"measurement": "Mean Colonization", "setting": "Type 8 S. aureus (MSSA)", "result": 0}, {"measurement": "Animals Colonized/Animals Tested", "setting": "[2]", "result": "0/5"}, {"measurement": "Mean Colonization", "setting": "[2]", "result": 0}, {"measurement": "Animals Colonized/Animals Tested", "setting": "[3]", "result": "0/5"}, {"measurement": "Mean Colonization", "setting": "[3]", "result": 0}, {"measurement": "time lysostaphin remains active in the nares after administration", "setting": "S. aureus MBT 5040", "result": "at least 48 hours"}, {"measurement": "MIC", "setting": "[1]", "result": 0.064, "unit": "µg/mL"}, {"measurement": "MIC", "setting": "MBT 5040 LysoR", "result": "> 32", "unit": "µg/mL"}, {"measurement": "CFUs Recovered", "setting": "S. aureus", "result": 0, "unit": "CFUs"}, {"measurement": "growth in lysostaphin MIC assay", "setting": "S. aureus (ATCC 49521); lysostaphin 0.25 ng/ml, no bacitracin", "result": "G"}, {"measurement": "growth in lysostaphin MIC assay", "setting": "S. aureus (ATCC 49521); lysostaphin 0.5 ng/ml, no bacitracin", "result": "G"}, {"measurement": "growth in lysostaphin MIC assay", "setting": "S. aureus (ATCC 49521); lysostaphin 1 ng/ml, no bacitracin", "result": "G"}, {"measurement": "growth in lysostaphin MIC assay", "setting": "S. aureus (ATCC 49521); lysostaphin 2 ng/ml, no bacitracin", "result": "R"}, {"measurement": "growth in lysostaphin MIC assay", "setting": "S. aureus (ATCC 49521); lysostaphin 4 ng/ml, no bacitracin", "result": "R^3 and R^"}, {"measurement": "growth in lysostaphin MIC assay", "setting": "S. aureus (ATCC 49521); lysostaphin 8 ng/ml, no bacitracin", "result": "R"}, {"measurement": "growth in lysostaphin MIC assay", "setting": "S. aureus (ATCC 49521); lysostaphin 16 ng/ml, no bacitracin", "result": "R"}, {"measurement": "growth in lysostaphin MIC assay", "setting": "S. aureus (ATCC 49521); lysostaphin 32 ng/ml, no bacitracin", "result": "R"}, {"measurement": "growth in lysostaphin MIC assay", "setting": "S. aureus (ATCC 49521); lysostaphin 125 ng/ml, no bacitracin", "result": "R"}, {"measurement": "growth in lysostaphin MIC assay", "setting": "S. aureus (ATCC 49521); lysostaphin 250 ng/ml, no bacitracin", "result": "R"}, {"measurement": "Percentage of wells above lysostaphin MIC that have outgrowth of lysostaphin-resistance", "setting": "S. aureus (ATCC 49521); nisin or bacitracin at four-fold dilution below MIC", "result": "31^a %"}, {"measurement": "Percentage of wells above lysostaphin MIC that have outgrowth of lysostaphin-resistance", "setting": "SA5 Sam", "result": 18, "unit": "%"}, {"measurement": "Percentage of wells above lysostaphin MIC that have outgrowth of lysostaphin-resistance", "setting": "SA5 USU", "result": 14, "unit": "%"}, {"measurement": "Percentage of wells above lysostaphin MIC that have outgrowth of lysostaphin-resistance", "setting": "SA8 Sam", "result": 58, "unit": "%"}]}
